Assays:
Experiment in all cases: Cytotoxicity testing, CellTiter-Blue assay (FIG. 9)
Format in all cases: cell-based
Conditions in all cases: 100 μM, 24 hour compound incubation, result in words
[1] = system: HeLa (cervical cancer)
Procedure: (§1) The cytotoxicity tests were carried out in the following manner. Living cells are known to convert resazurin to the fluorescent compound resorufin. Test systems which rely upon this reaction are commercially available. One such test is known at the Cell Titer Blue Cell Viability test assay from Promega. Cell cultures for each of the identified cancer lines were obtained from ATCC and maintained in Dulbecco's Modified Eagle Medium (DMEM) supplemented with 10% fetal bovine serum (FBS) and pen/strep. As known to those skilled in the art, DMEM typically includes the components identified below.
(§2) The test method provides for incubating the cell cultures at 37° C. Additionally, the cell cultures are kept under an atmosphere containing 5% CO2. After allowing for proliferation of the cells, the cells were distributed across a plurality of test cells containing from 100 μL DMEM plus 10% FBS and allowed to attach to the surface of the cells. Typically, the time for attachment will require about 12 hours to about 18 hours. Following attachment, the cells were treated with either a solvent control or the N-benzyl sulfonamide compound of interest dissolved in a suitable solvent such as but not limited to DMSO. Typically, about 18 hours to about 36 hours are required to determine the effect of the N-benzyl sulfonamide compound of interest on cell viability. Following treatment of the cells with the N-benzyl sulfonamide or control, the toxicity of the compound to the cells will be determined by addition of 10 μl of CellTiter-Blue reagent, i.e. resazurin. Typically, the resazurin is added between about 18 hours to about 36 hours after treating the cells with the N-benzyl sulfonamides or the control. The cells are allowed to consume and convert the resazurin to resorufin for about one to four hours. Subsequently, the fluorescence of […] is measured by excitation at 560 nm and recording the emission at 590 nm within an instrument configured to measure fluorescence intensity. Two commercially available systems are the BioTek Cytation 5 plate reader and the Promega Glomax Multi+detection system. […] The method for determining IC50 values is well known in the art and will not be discussed further. As known to those skilled in the art, IC50 is a quantitative measure that indicates how much of a particular inhibitory substance (e.g. drug) is needed to inhibit, in vitro, a given biological process or biological component by 50%. Therefore, each N-benzyl sulfonamide will be tested over a range of concentrations. Typically, the concentration ranges will be: 6.25 μM, 12.5 μM, 25 μM, 50 μM, and 100 μM. The control in this method is normally dimethyl […] (DMSO) or other solvent suitable for dissolving the compounds to be tested. FIG. 8 depicts the % cell viability for the indicated compounds depicted in FIG. 7.
(§3) The Table of FIG. 9 provides the results of cytotoxicity testing a 100 μM concentration of compounds 2, 5-9, 11-12, 14, 16, 18-22 of FIG. 7 against the indicated cancer cell lines using CellTiter-Blue assay with 24 hour compound incubation time. FIG. 9 reflects the percent reduction in cell viability resulting from the treatment of the indicated cancer cell lines with the indicated compounds. As indicated by the boxed values in FIG. 9, compounds 2, 5, and 6 would be considered effective against H293. […] The Table of FIG. 10 provides a comparison of the IC50 values of select compounds from FIG. 7 to the IC50 values of two known anti-cancer sulfonamides, ABT-751 and Indisulam. As indicated by FIG. 10, the identified compounds performed remarkably better than the known anti-cancer agents. Thus, the identified compounds are expected to have greater anti-cancer potency.

[2] = system: MCF10A (non-cancerous breast)
Procedure: as §1, §2, §3

[3] = system: NCI-H196 (lung cancer)
Procedure: as §1, §2, §3

Cc1ccc(S(=O)(=O)NCc2c[nH]c3cccc(Br)c23)cc1 [Compound 5, N-[(4-bromo-1H-indol-3-yl)methyl]-4-methylbenzenesulfonamide]
displayed effectiveness: percent reduction in cell viability, HeLa [1] | percent reduction in cell viability, MCF10A [2] | percent reduction in cell viability, NCI-H196 [3]

From patent US20230266302A1, “SYNTHESIS AND USE OF N-BENZYL SULFONAMIDES” (THE UNIVERSITY OF TULSA, priority 2020, published 2023)
